Consider 15 molecules from ChEMBL document CHEMBL5356955, “Thiamine analogues featuring amino-oxetanes as potent and selective inhibitors of pyruvate dehydrogenase” (Bioorg Med Chem Lett, 2024).

Data set [1] in a line: Stability of the compound assessed as compound remaining in 0.1 M aqueous K2CO3 incubated for 1 hr by NMR analysis. The format is physicochemical. To be noted: read-out: Stability.
The target of data set [2] is T1, Pyruvate dehydrogenase E1 component subunit alpha, somatic form, mitochondrial (Sus scrofa) (UniProt P29804).
T1 sequence (whole entry): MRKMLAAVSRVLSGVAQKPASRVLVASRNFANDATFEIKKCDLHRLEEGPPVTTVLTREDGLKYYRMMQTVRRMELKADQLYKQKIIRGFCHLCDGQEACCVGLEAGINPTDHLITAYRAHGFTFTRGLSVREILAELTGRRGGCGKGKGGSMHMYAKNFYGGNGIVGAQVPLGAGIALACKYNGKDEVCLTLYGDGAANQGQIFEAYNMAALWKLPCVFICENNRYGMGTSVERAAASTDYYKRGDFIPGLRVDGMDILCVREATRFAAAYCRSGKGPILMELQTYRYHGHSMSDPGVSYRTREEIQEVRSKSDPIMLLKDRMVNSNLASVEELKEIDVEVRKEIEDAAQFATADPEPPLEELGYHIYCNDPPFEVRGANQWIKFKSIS
Briefly: Inhibition of porcine PDHc E1-subunit at 10 uM at 1:5 compound: thiamine pyrophosphate ratio incubated for 30 mins followed by pyruvate addition by microplate reader analysis relative to control.

Data set [3] can be described thus: Thermal stability of the compound assessed as compound remaining in DMSO at 70 degreeC incubated for 2 hrs by NMR analysis. The format is physicochemical. The note with it: read-out: Stability.
A short description of data set [4]: Metabolic stability of the compound assessed as porcine liver esterase mediated hydrolysis at pH 7.4 measured after 4 hrs by UPLC analysis. The format is ADME, Sus scrofa. The note with it: pig, isolated protein, pH 7.4, 4 h.
Data set [5] has as its target T2, Pyruvate dehydrogenase E1 component subunit alpha, somatic form, mitochondrial (Sus scrofa, UniProt P29804).
T2 sequence (P29804 whole entry): T1 sequence (whole entry)
Briefly: Inhibition of porcine PDHc E1-subunit incubated for 30 mins followed by pyruvate addition in presence of thiamine pyrophosphate by microplate reader analysis.

The nature of data set [6]: Permeability of the compound assessed as absorbed fraction by PAMPA assay. The format is ADME. In general terms: PAMPA measures passive passage across an artificial lipid membrane.
The nature of data set [7]: Stability of the compound assessed as compound remaining in 0.1M aqueous phosphate buffer at pH 7.4 incubated for 2 hrs by NMR analysis. The format is physicochemical. To be noted: read-out: Stability.
The nature of data set [8]: Stability of the compound assessed as porcine liver esterase mediated compound degradation by measuring compound recovery at 0.05 mmol measured after 30 mins by NMR analysis. The format is ADME, Sus scrofa. To be noted: pig, read-out: Stability.
Data set [9] can be described thus: Stability of the compound assessed as compound remaining in 1 M aqueous HCl at 37 degreeC incubated for 2 hrs by NMR analysis. The format is physicochemical. To be noted: read-out: Stability.
A short description of data set [10]: Stability of the compound assessed as compound remaining in 1 M aqueous NaOH at 37 degreeC incubated for 2 hrs by NMR analysis. To be noted: read-out: Stability. The format is physicochemical.
The target in data set [11] is T2, Pyruvate dehydrogenase E1 component subunit alpha, somatic form, mitochondrial. Briefly: Binding affinity to porcine PDHc E1-subunit assessed as inhibition constant incubated for 30 mins followed by pyruvate addition by microplate reader analysis.
In data set [12] the target is T1, Pyruvate dehydrogenase E1 component subunit alpha, somatic form, mitochondrial (Sus scrofa). Briefly: Binding affinity to porcine PDHc E1-subunit assessed as KM(TPP)/Ki ratio incubated for 30 mins followed by pyruvate addition by microplate reader analysis.
Data set [13] shares this target. Briefly: Inhibition of porcine PDHc E1-subunit at 10 uM at 1:1 compound: thiamine pyrophosphate ratio incubated for 30 mins followed by pyruvate addition by microplate reader analysis relative to control.
A short description of data set [14]: Drug metabolism in porcine liver esterase assessed as 2-(4-((4-amino-2-methylpyrimidin-5-yl)methyl)-3-methylthiophen-2-yl)ethan-1-ol formation at pH 7.4 measured after 4 hrs. The format is ADME, Sus scrofa. To be noted: pig, pH 7.4, 4 h.

In general, inhibition refers to the drop in the measured response relative to a control, in per cent. A word on the IC50: it is the concentration that inhibits the measured activity by half. In general, Ki refers to the dissociation constant of the complex between target and ligand, obtained from inhibition or displacement. On to `COc1ccc(C2(NCCc3scc(Cc4cnc(C)nc4N)c3C)COC2)cc1`, for which the remaining at 1 h in [1] was greater than 90%. For the same molecule, the inhibition in data set [2] is 65%; in data set [13], greater than 90%. The remaining at 2 h in data set [3] was greater than 90%; in data set [7], greater than 90%; in data set [9] it was 22%; in data set [10], greater than 90%. Moreover, in data set [4], the Stability entry is reported as “Stable”. Also, the IC50 in data set [5] was 990 nM. Besides, the permeability in [6] stood at 44%. For the same molecule, the remaining at 0.5 h in data set [8] is greater than 90%. The inhibition constant (Ki) in data set [11] is 4.95 nM. In data set [12], the Ratio turned out to be 10.1.

As for `COc1ccc(C(=O)NCCc2scc(Cc3cnc(C)nc3N)c2C)cc1`, the figures for the inhibition in data set [2] and in [13] were 28% and 65%, respectively. The Stability result in data set [4] is “Stable”. Further, the 50% inhibitory concentration (IC50) in data set [5] was 5100 nM. Besides, in [6], the permeability was 35%. The inhibition constant Ki in [11] was 25.5 nM. Moreover, the Ratio in data set [12] came to 1.96.

With `Cc1ncc(Cn2cc(CCNC(=O)c3ccc(Cl)cc3)nn2)c(N)n1`, in data set [5], the IC50 was 66000 nM.

On to `Cc1ncc(Cc2coc(CCNC(=O)c3cccnc3)c2)c(N)n1`, for which the IC50 in data set [5] turned out to be 2500 nM.

For the molecule `Cc1ncc(Cn2cc(CCO)nn2)c(N)n1`, the half-maximal inhibitory concentration (IC50) in [5] turned out to be 30000 nM. Besides, in data set [11], the Ki came out at 150 nM.

Regarding `COc1ccc(C(=O)OCC[C@H]2SCN(Cc3cnc(C)nc3N)[C@H]2C)cc1` (racemic), the IC50 in data set [5] came out at 3500 nM. The inhibition constant (Ki) in data set [11] came to 17.5 nM. In addition, in [12], the Ratio amounted to 2.86.

For `Cc1ncc(Cc2csc(CCO)c2C)c(N)n1` [3-DEAZATHIAMINE], the concentration for half-maximal inhibition (IC50) in data set [5] is 3600 nM. For the same molecule, the inhibitory constant (Ki) in data set [11] was 18 nM. Also, the Ratio in [12] was found to be 2.78.

With `COc1ccc(C(=O)OCCc2scc(Cc3cnc(C)nc3N)c2C)cc1`, the remaining at 1 h in [1] worked out at 31%. The inhibition in data set [2] is 72%; in data set [13] it was greater than 90%. In addition, the remaining at 2 h was greater than 90% in data set [3], greater than 90% in data set [7], 43% in data set [9] and 15% in data set [10]. Further, the Stability result in [4] is “Unstable”. The IC50 in data set [5] stood at 890 nM. In [14], the Drug metabolism result is “Metabolite_Detected”. Also, in [6], the permeability is given as 39%. The remaining at 0.5 h in data set [8] is less than 10%. Also, the inhibition constant (Ki) in data set [11] worked out at 4.45 nM. In [12], the Ratio came out at 11.2.

With `Cc1ncc(Cn2cc(CCOC(=O)c3cccnc3)nn2)c(N)n1`, the half-maximal inhibitory concentration (IC50) in data set [5] worked out at 3000 nM.

For `COc1ccc(C(=O)OCCc2cn(Cc3cnc(C)nc3N)nn2)cc1`, the inhibition in [2] came out at 25%; in data set [13], 63%. In data set [5], the half-maximal inhibitory concentration (IC50) turned out to be 6300 nM. Besides, in data set [6], the permeability stood at 31%. In addition, the inhibitory constant (Ki) in data set [11] is 31.5 nM. In addition, in [12], the Ratio was found to be 1.59.

Regarding `Cc1ncc(Cc2coc(CCNC(=O)c3ccc(Cl)cc3)c2)c(N)n1`, the IC50 in data set [5] is 9200 nM.

As for `Cc1ncc(CN2CS[C@H](CCO)[C@@H]2C)c(N)n1` (racemic), in [5], the half-inhibitory concentration (IC50) came out at 21000 nM. The Ki in data set [11] is 105 nM. Also, the Ratio in data set [12] was 0.48.

Take `Cc1ncc(Cc2coc(CCOC(=O)c3ccc(Cl)cc3)c2)c(N)n1`: the IC50 in data set [5] amounted to 3300 nM.

With `COc1ccc(C(=O)NCCc2cn(Cc3cnc(C)nc3N)nn2)cc1`, the inhibition was less than 10% in data set [2] and 22% in data set [13]. Moreover, the concentration for half-maximal inhibition (IC50) in data set [5] stood at 35000 nM. The permeability in data set [6] turned out to be 26%. In addition, the inhibition constant (Ki) in data set [11] is 175 nM. Also, in data set [12], the Ratio was found to be 0.29.

In the case of `COc1ccc(C2(NCCc3cn(Cc4cnc(C)nc4N)nn3)COC2)cc1`, the inhibition came out at 20% in data set [2] and 58% in data set [13]. Besides, the IC50 in data set [5] was determined as 7800 nM. Moreover, in data set [6], the permeability is 35%. Further, the Ki in data set [11] was found to be 39 nM. Moreover, the Ratio in [12] is 1.28.
